Measurements published in US20130079373A1, “Substituted Methanesulfonamide Derivatives as Vanilloid Receptor Ligands” (priority 2011, published 2013).

Biological target: T1, vanilloid receptor 1 (VR1/TRPV1 receptor) (Homo sapiens, UniProt Q8NER1)
T1 construct: expressed in transfected cells; host or cells: CHO K1
Experiment: Functional testing on the vanilloid receptor 1 (FLIPR Ca2+ influx assay, capsaicin stimulation)
Type: cell-based
Conditions: @1 μM compound; Cap = capsaicin; human being; read-out: inhibition (as a percentage), (f) (human being) Cap
Method: Furthermore, preference may be given to compounds according to the invention that cause a 50 percent displacement of capsaicin, which is present at a concentration of 100 nM, in a FLIPR assay with CHO K1 cells which were transfected with the human VR1 gene at a concentration of less than 2,000 nM, preferably less than 1,000 nM, particularly preferably less than 300 nM, most particularly preferably less than 100 nM, even more preferably less than 75 nM, additionally preferably less than 50 nM, most preferably less than 10 nM.
In the process, the Ca^2+ influx is quantified in the FLIPR assay with the aid of a Ca^2+-sensitive dye (type Fluo-4, Molecular Probes Europe BV, Leiden, the Netherlands) in a fluorescent imaging plate reader (FLIPR, Molecular Devices, Sunnyvale, USA), as described hereinafter.
I. Functional Testing Carried Out on the Vanilloid Receptor 1 (VR1/TRPV1 Receptor) […]
The number of cells in the suspension is set to 3×10^5 per mL and 150 μL of this suspension are in each case introduced into a recess in the cell culture plates coated as described hereinbefore. In the incubator the plates are left for two to three days at 37° C., 5% by volume of CO2 and 95% relative humidity. Subsequently, the cells are loaded with 2 μM of Fluo-4 and 0.01% by volume of Pluronic F127 (Molecular Probes Europe BV, Leiden, the Netherlands) in HBSS buffer (Hank's buffered saline solution, Gibco Invitrogen GmbH, Karlsruhe, Germany) for 30 min at 37° C., washed 3 times with HBSS buffer and after further incubation for 15 minutes at room temperature used for Ca^2+ measurement in a FLIPR assay. The Ca^2+ dependent fluorescence is in this case measured before and after the addition of substances (λex=488 nm, λem=540 nm). Quantification is carried out by measuring the highest fluorescence intensity (FC, fluorescence counts) over time.
The FLIPR protocol consists of 2 substance additions. First the compounds to be tested (10 μM) are pipetted onto the cells and the Ca^2+ influx is compared with the control (capsaicin 10 μM). This provides the result in % activation based on the Ca^2+ signal after the addition of 10 μM of capsaicin (CP). After 5 minutes' incubation, 100 nM of capsaicin are applied and the Ca^2+ influx is also determined.
Desensitising agonists and antagonists lead to suppression of the Ca^2+ influx. The % inhibition is calculated compared to the maximum achievable inhibition with 10 μM of capsazepine.
Triple analyses (n=3) are carried out and repeated in at least 3 independent experiments (N=4).
Starting from the percentage displacement caused by different concentrations of the compounds to be tested of general formula I, IC50 inhibitory concentrations which cause a 50-percent displacement of capsaicin were calculated. Ki values for the test substances were obtained by conversion by means of the Cheng-Prusoff equation (Cheng, Prusoff; Biochem. Pharmacol. 22, 3099-3108, 1973).
The affinity of the compounds according to the invention for the vanilloid receptor 1 (VR1/TRPV1 receptor) was determined as described hereinbefore (pharmacological method I).

T1 sequence (Q8NER1 whole entry): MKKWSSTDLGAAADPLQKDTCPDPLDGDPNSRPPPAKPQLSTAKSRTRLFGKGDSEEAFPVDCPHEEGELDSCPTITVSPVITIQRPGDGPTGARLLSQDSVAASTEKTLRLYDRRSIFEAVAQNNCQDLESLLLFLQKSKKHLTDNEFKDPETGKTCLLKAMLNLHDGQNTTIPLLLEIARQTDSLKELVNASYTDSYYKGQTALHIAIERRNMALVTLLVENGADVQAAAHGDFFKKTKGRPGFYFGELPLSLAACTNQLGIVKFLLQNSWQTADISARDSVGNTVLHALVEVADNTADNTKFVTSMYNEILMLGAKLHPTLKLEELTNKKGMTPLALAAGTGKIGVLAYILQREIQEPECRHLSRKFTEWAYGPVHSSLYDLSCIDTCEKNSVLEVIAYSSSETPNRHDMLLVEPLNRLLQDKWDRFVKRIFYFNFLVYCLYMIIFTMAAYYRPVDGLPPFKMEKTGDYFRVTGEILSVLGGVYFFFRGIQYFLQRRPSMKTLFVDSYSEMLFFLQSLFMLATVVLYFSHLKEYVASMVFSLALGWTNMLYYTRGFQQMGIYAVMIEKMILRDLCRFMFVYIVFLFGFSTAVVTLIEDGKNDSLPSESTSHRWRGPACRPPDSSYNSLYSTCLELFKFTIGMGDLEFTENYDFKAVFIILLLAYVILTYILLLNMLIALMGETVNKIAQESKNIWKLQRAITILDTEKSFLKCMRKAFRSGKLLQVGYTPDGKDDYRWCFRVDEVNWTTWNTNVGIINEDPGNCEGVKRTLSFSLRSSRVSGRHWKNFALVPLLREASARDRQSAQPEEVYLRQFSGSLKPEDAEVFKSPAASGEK

inhibition at 1 µM | SMILES
15% | COc1cc(C(C)C(=O)NCc2ccc(C(F)(F)F)nc2OC(C)C)ccc1CNS(C)(=O)=O (stereo not drawn) [Example 27, N-((2-isopropoxy-6-(trifluoromethyl)pyridin-3-yl)methyl)-2-(3-methoxy-4-(methylsulfonamidomethyl)phenyl)propanamide]

Same assay, conditions: @5 μM compound; Cap = capsaicin; human being; read-out: inhibition (as a percentage), (f) (human being) Cap

inhibition at 5 µM | SMILES
18% | COCCCc1nc(C(F)(F)F)ccc1CNC(=O)C(C)c1ccc(CNS(C)(=O)=O)c(F)c1 (stereo not drawn) [Example 2, 2-(3-fluoro-4-(methylsulfonamidomethyl)phenyl)-N-((2-(3-methoxypropyl)-6-(trifluoromethyl)pyridin-3-yl)methyl)propanamide]
13% | COCCOCc1nc(C(F)(F)F)ccc1CNC(=O)C(C)c1ccc(CNS(C)(=O)=O)c(F)c1 (stereo not drawn) [Example 3, 2-(3-fluoro-4-(methylsulfonamidomethyl)phenyl)-N-((2-((2-methoxyethoxy)methyl)-6-(trifluoromethyl)pyridin-3-yl)methyl)propanamide]

Same assay, conditions: Cap = capsaicin; human being; Ki from IC50 by the Cheng-Prusoff equation; read-out: (f) Ki (human being) [nM] Cap

SMILES | Ki
CCCCCc1nc(C(F)(F)F)ccc1CNC(=O)C(C)c1ccc(CNS(C)(=O)=O)c(F)c1 (stereo not drawn) [Example 1, 2-(3-fluoro-4-(methylsulfonamidomethyl)phenyl)-N-((2-pentyl-6-(trifluoromethyl)pyridin-3-yl)methyl)propanamide] | 14 nM
CC(C(=O)NCc1ccc(C(F)(F)F)nc1/C=C/C(C)(C)C)c1ccc(CNS(C)(=O)=O)c(F)c1 (stereo not drawn) [Example 4, (E)-N-((2-(3,3-dimethylbut-1-enyl)-6-(trifluoromethyl)pyridin-3-yl)methyl)-2-(3-fluoro-4-(methylsulfonamidomethyl)phenyl)propanamide] | 12 nM
CC(C(=O)NCc1ccc(C(F)(F)F)nc1C1CCCC1)c1ccc(CNS(C)(=O)=O)c(F)c1 (stereo not drawn) [Example 5, N-((2-cyclopentyl-6-(trifluoromethyl)pyridin-3-yl)methyl)-2-(3-fluoro-4-(methylsulfonamidomethyl)phenyl)propanamide] | 13 nM
CC(C(=O)NCc1ccc(C(F)(F)F)nc1C1CCCCC1)c1ccc(CNS(C)(=O)=O)c(F)c1 (stereo not drawn) [Example 6, N-((2-cyclohexyl-6-(trifluoromethyl)pyridin-3-yl)methyl)-2-(3-fluoro-4-(methylsulfonamidomethyl)phenyl)propanamide] | 15 nM
CCCCOc1nc(C(F)(F)F)ccc1CNC(=O)C(C)c1ccc(CNS(C)(=O)=O)c(F)c1 (stereo not drawn) [Example 16, N-((2-butoxy-6-(trifluoromethyl)pyridin-3-yl)methyl)-2-(3-fluoro-4-(methylsulfonamidomethyl)phenyl)propanamide] | 8 nM
CCCCOc1nc(C(F)(F)F)ccc1CNC(=O)C(C)c1ccc(CNS(C)(=O)=O)c(OC)c1 (stereo not drawn) [Example 29, N-((2-butoxy-6-(trifluoromethyl)pyridin-3-yl)methyl)-2-(3-methoxy-4-(methylsulfonamidomethyl)phenyl)propanamide] | 61 nM
CCCCOc1nc(C(F)(F)F)ccc1CNC(=O)C(C)c1ccc(CNS(=O)(=O)CC)c(F)c1 (stereo not drawn) [Example 31, N-((2-butoxy-6-(trifluoromethyl)pyridin-3-yl)methyl)-2-(4-(ethylsulfonamidomethyl)-3-fluorophenyl)propanamide] | 15 nM
CCCCOc1nc(C(F)(F)F)ccc1CNC(=O)Nc1ccc(CNS(N)(=O)=O)cc1 [Example 33, 1-{[2-butoxy-6-(trifluoromethyl)pyridin-3-yl]methyl}-3-{4-[(sulfamoylamino)methyl]phenyl}urea] | 8 nM
CCCCOc1nc(C(F)(F)F)ccc1CNC(=O)Nc1ccc(CNS(N)(=O)=O)c(F)c1 [Example 37, 1-{3-fluoro-4-[(sulfamoylamino)methyl]phenyl}-3-{[2-butoxy-6-(trifluoromethyl)pyridin-3-yl]methyl}urea] | 7 nM

Now from value to molecule:

Ki | SMILES
37 nM | CC(C)Oc1nc(C(F)(F)F)ccc1CNC(=O)C(C)c1ccc(CNS(C)(=O)=O)c(F)c1 (stereo not drawn) [Example 15, 2-(3-fluoro-4-(methylsulfonamidomethyl)phenyl)-N-((2-isopropoxy-6-(trifluoromethyl)pyridin-3-yl)methyl)propanamide]
13 nM | CC(C(=O)NCc1ccc(C(F)(F)F)nc1OC1CCCC1)c1ccc(CNS(C)(=O)=O)c(F)c1 (stereo not drawn) [Example 20, N-((2-(cyclopentyloxy)-6-(trifluoromethyl)pyridin-3-yl)methyl)-2-(3-fluoro-4-(methylsulfonamidomethyl)phenyl)propanamide]
111 nM | CC(C(=O)NCc1ccc(C(F)(F)F)nc1OC1CCOCC1)c1ccc(CNS(C)(=O)=O)c(F)c1 (stereo not drawn) [Example 25, 2-(3-fluoro-4-(methylsulfonamidomethyl)phenyl)-N-((2-(tetrahydro-2H-pyran-4-yloxy)-6-(trifluoromethyl)pyridin-3-yl)methyl)propanamide]
70 nM | CCS(=O)(=O)NCc1ccc(C(C)C(=O)NCc2ccc(C(F)(F)F)nc2OC(C)C)cc1F (stereo not drawn) [Example 30, 2-(4-(ethylsulfonamidomethyl)-3-fluorophenyl)-N-((2-isopropoxy-6-(trifluoromethyl)pyridin-3-yl)methyl)propanamide]
10 nM | CC(C)Oc1nc(C(F)(F)F)ccc1CNC(=O)Nc1ccc(CNS(N)(=O)=O)cc1 [Example 32, 1-{[2-isopropoxy-6-(trifluoromethyl)pyridin-3-yl]methyl}-3-{4-[(sulfamoylamino)methyl]phenyl}urea]
1 nM | NS(=O)(=O)NCc1ccc(NC(=O)NCc2ccc(C(F)(F)F)nc2OC2CCCC2)cc1 [Example 34, 1-{[2-cyclopentyloxy-6-(trifluoromethyl)pyridin-3-yl]methyl}-3-{4-[(sulfamoylamino)methyl]phenyl}urea]
16 nM | CCOc1nc(C(F)(F)F)ccc1CNC(=O)Nc1ccc(CNS(N)(=O)=O)c(F)c1 [Example 35, 1-{3-fluoro-4-[(sulfamoylamino)methyl]phenyl}-3-{[2-ethoxy-6-(trifluoromethyl)pyridin-3-yl]methyl}urea]
6 nM | CC(C)Oc1nc(C(F)(F)F)ccc1CNC(=O)Nc1ccc(CNS(N)(=O)=O)c(F)c1 [Example 36, 1-{3-fluoro-4-[(sulfamoylamino)methyl]phenyl}-3-{[2-isopropoxy-6-(trifluoromethyl)pyridin-3-yl]methyl}urea]
5 nM | NS(=O)(=O)NCc1ccc(NC(=O)NCc2ccc(C(F)(F)F)nc2OC2CCCC2)cc1F [Example 38, 1-{3-fluoro-4-[(sulfamoylamino)methyl]phenyl}-3-{[2-cyclopentyloxy-6-(trifluoromethyl)pyridin-3-yl]methyl}urea]
44 nM | CC(C(=O)NCc1ccc(C(F)(F)F)nc1SC1CCCCC1)c1ccc(CNS(C)(=O)=O)c(F)c1 (stereo not drawn) [Example 43, N-((2-(cyclohexylthio)-6-(trifluoromethyl)pyridin-3-yl)methyl)-2-(3-fluoro-4-(methylsulfonamidomethyl)phenyl)propanamide]
83 nM | CC(C(=O)NCc1ccc(C(F)(F)F)nc1-c1ccc2cc[nH]c2c1)c1ccc(CNS(C)(=O)=O)c(F)c1 (stereo not drawn) [Example 44, N-((2-(1H-indol-6-yl)-6-(trifluoromethyl)pyridin-3-yl)methyl)-2-(3-fluoro-4-(methylsulfonamidomethyl)phenyl)propanamide]
59 nM | CC(C(=O)NCc1ccc(C(F)(F)F)nc1-c1ccc2c(c1)OCO2)c1ccc(CNS(C)(=O)=O)c(F)c1 (stereo not drawn) [Example 45, N-((2-(benzo[d][1,3]dioxol-5-yl)-6-(trifluoromethyl)pyridin-3-yl)methyl)-2-(3-fluoro-4-(methylsulfonamidomethyl)phenyl)propanamide]
